Measured values reported in ChEMBL document CHEMBL1126453, “Synthesis and anti-herpes activity of 5-trifluorovinyl-2-deoxyuridine” (1992).

Tests used:
[1] = Minimum antiviral concentration required to reduce virus-induced cytopathogenicity against HSV-1 (KOS) in E6SM cells; assay type: functional
[2] = Minimum antiviral concentration required to reduce virus-induced cytopathogenicity against HSV-2 (G) in E6SM cells; assay type: functional
[3] = Minimum antiviral concentration required to reduce virus-induced cytopathogenicity against TK' HSV-1 (VMW 1837) in E6SM cells; assay type: functional
[4] = Minimum antiviral concentration required to reduce virus-induced cytopathogenicity against TK-HSV-1 (B2006) in E6SM cells; assay type: functional
[5] = Minimum antiviral concentration required to reduce virus-induced cytopathogenicity against vaccinia virus in E6SM cells; assay type: functional
[6] = Minimum cytotoxic concentration required to cause alteration of normal E6SM cell culture morphology; assay type: functional; settings: read-out: Min cytotoxic concentration
HEL [7] = assay: Minimum antiviral concentration required to reduce virus-induced cytopathogenicity against TK' VZV (07/1) in HEL cells; assay type: functional, Homo sapiens
HEL [8] = assay: Minimum antiviral concentration required to reduce virus-induced cytopathogenicity against TK' VZV (YS/R) in HEL cells; assay type: functional, Homo sapiens
HEL [9] = assay: Minimum antiviral concentration required to reduce virus-induced cytopathogenicity against VZV (OKA) in HEL cells; assay type: functional, Homo sapiens
HEL [10] = assay: Minimum antiviral concentration required to reduce virus-induced cytopathogenicity against VZV (YS) in HEL cells; assay type: functional, Homo sapiens
HEL [11] = assay: Minimum cytotoxic concentration required to cause alteration of normal human […] (HEL) morphology; assay type: functional; settings: read-out: Min cytotoxic concentration
[12] = Minimum antiviral concentration required to reduce virus-induced cytopathogenicity against TK' HSV-1 (B2006) in E6SM cells; assay type: functional
[13] = Minimum antiviral concentration required to reduce virus-induced cytopathogenicity against Vaccinia virus in E6SM cells; assay type: functional
HEL [14] = assay: Minimum cytotoxic concentration required to cause alteration of normal human […] (HEL) morphology in HEL cells; assay type: functional; settings: read-out: Min cytotoxic concentration

O=c1[nH]c(=O)n([C@H]2C[C@H](O)[C@@H](CO)O2)cc1C(F)=C(F)F
Min antiviral concentration [1]: 0.05 µg/mL | Min antiviral concentration [2]: 13 µg/mL | Min antiviral concentration [3]: 1.5 µg/mL | Min antiviral concentration [4]: 13 µg/mL | Min antiviral concentration [5]: 8 µg/mL | MCC [6]: 100 µg/mL | Min antiviral concentration (HEL [7]): 13.6 µg/mL | Min antiviral concentration (HEL [8]): 11.6 µg/mL | Min antiviral concentration (HEL [9]): 0.16 µg/mL | Min antiviral concentration (HEL [10]): 0.55 µg/mL | MCC (HEL [11]): 10 µg/mL

O=c1[nH]c(=O)n([C@H]2C[C@H](O)[C@@H](CO)O2)cc1/C=C/Br [BRIVUDINE]
Min antiviral concentration [1]: 0.02 µg/mL | Min antiviral concentration [2]: 100 µg/mL | Min antiviral concentration [12]: 100 µg/mL | Min antiviral concentration [3]: 40 µg/mL | Min antiviral concentration [13]: 0.3 µg/mL | MCC [6]: 200 µg/mL | Min antiviral concentration (HEL [7]): >10 µg/mL | Min antiviral concentration (HEL [8]): >10 µg/mL | Min antiviral concentration (HEL [9]): 0.002 µg/mL | Min antiviral concentration (HEL [10]): 0.004 µg/mL | MCC (HEL [14]): 200 µg/mL
